Measured values taken from patent publication US20020019394A1, “Bicyclic sulfonyl amino inhibitors of factor Xa” (priority 2000, published 2002).
pIC50: −log10 of the molar value. Where two headings read alike, the source gives them in different places.

Columns and labels:
thrombin = thrombin (Homo sapiens, UniProt P00734); test: Thrombin amidolytic assay (Chromozym TH)
Protocol: (§2) In the assays for thrombin, prothrombinase and factor Xa, a synthetic chromogenic substrate is added to a solution containing test compound and the enzyme of interest and the residual catalytic activity of that enzyme is determined spectrophotometrically. The IC50 of a compound is determined from the substrate turnover. […] The factor Xa and thrombin assays are performed at room temperature, in 0.02 M Tris.HCl buffer, pH 7.5, containing 0.15 M NaCl.

prothrombinase complex = prothrombinase complex (Homo sapiens, UniProt P00742); test: Prothrombinase inhibition assay, plasma free system; assay type: biochemical; conditions: for pIC50: read-out: IIASE; for IC50: read-out: IC50 (nM) Prothrombinase
Sequence of prothrombinase complex (P00742 235-488 limits assumed): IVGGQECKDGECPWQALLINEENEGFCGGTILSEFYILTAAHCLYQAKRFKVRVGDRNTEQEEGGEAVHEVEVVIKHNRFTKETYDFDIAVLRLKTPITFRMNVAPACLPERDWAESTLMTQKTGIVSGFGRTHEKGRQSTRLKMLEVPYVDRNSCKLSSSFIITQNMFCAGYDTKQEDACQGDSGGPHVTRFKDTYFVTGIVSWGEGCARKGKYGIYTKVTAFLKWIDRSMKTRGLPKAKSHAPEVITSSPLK
Sequence of prothrombinase complex (P00742 41-179 limits assumed): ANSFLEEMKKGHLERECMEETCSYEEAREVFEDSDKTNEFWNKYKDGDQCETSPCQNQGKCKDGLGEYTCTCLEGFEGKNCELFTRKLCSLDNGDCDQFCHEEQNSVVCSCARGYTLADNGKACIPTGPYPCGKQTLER
Sequence of prothrombinase complex (P12259 29-737 partner limits assumed): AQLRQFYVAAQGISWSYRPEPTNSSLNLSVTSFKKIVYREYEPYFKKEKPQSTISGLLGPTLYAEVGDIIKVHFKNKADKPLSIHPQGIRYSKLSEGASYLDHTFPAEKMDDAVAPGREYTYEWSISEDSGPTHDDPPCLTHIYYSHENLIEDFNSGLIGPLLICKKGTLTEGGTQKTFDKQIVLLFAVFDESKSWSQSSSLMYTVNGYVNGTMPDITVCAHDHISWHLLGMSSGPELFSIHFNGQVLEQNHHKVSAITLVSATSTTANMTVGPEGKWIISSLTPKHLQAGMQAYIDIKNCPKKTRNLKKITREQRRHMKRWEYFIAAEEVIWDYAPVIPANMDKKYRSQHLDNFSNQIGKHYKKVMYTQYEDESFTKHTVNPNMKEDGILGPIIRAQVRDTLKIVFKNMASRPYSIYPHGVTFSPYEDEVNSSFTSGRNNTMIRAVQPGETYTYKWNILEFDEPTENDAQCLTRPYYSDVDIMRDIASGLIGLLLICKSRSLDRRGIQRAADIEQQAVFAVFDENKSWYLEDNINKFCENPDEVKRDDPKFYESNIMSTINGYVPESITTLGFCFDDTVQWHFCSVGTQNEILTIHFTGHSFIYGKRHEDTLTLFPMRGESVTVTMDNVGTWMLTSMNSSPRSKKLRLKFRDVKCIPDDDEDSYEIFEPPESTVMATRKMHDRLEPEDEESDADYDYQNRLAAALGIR
Sequence of prothrombinase complex (P12259 1574-2224 partner limits assumed): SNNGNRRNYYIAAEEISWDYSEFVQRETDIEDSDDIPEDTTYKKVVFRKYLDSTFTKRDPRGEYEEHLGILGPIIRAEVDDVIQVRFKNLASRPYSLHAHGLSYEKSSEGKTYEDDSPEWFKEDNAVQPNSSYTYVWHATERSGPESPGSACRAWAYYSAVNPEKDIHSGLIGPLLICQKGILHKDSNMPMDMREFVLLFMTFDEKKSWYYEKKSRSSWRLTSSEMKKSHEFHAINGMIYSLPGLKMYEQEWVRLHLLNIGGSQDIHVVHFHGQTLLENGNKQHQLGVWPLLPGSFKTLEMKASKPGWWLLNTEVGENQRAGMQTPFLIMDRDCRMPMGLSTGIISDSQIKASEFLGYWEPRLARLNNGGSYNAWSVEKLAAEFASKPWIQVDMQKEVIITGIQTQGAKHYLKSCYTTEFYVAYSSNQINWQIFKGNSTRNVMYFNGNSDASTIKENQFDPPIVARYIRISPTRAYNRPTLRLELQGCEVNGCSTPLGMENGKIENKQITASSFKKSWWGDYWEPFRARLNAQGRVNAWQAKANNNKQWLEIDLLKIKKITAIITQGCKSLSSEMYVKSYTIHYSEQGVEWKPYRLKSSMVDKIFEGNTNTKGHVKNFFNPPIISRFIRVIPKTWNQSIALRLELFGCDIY
Protocol: The prothrombinase inhibition assay is performed in a plasma free system with modifications to the method described by Sinha, U. et al., Thromb. […] Specifically, the activity of the prothrombinase complex is determined by measuring the time course of thrombin generation using the p-nitroanilide substrate Chromozym TH. […] Aliquots from the complex-inhibitor mixture are added to prothrombin (1 nM) and Chromozym TH (0.1 mM). […] Eight different concentrations of inhibitor are assayed in duplicate. A standard curve of thrombin generation by an equivalent amount of untreated complex is used for determination of percent inhibition.

factor Xa = factor Xa (Homo sapiens, UniProt P00742); test: Factor Xa amidolytic assay (chromogenic substrate S-2765)
Sequence of factor Xa (P00742 235-488 limits assumed): as the sequence (P00742 235-488 limits assumed) above
Sequence of factor Xa (P00742 41-179 limits assumed): as the sequence (P00742 41-179 limits assumed) above
Protocol: as §2

APC = APC (Homo sapiens, UniProt P04070); test: In vitro protease activity assay, APC; assay type: biochemical
Sequence of APC (P04070 212-450 limits assumed): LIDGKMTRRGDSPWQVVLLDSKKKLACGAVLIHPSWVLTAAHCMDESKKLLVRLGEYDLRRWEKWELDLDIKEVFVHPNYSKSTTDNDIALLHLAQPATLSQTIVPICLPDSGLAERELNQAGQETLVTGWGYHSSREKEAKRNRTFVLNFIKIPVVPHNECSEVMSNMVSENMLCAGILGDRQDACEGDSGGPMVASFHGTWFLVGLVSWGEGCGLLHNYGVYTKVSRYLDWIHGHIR
Sequence of APC (P04070 43-197 limits assumed): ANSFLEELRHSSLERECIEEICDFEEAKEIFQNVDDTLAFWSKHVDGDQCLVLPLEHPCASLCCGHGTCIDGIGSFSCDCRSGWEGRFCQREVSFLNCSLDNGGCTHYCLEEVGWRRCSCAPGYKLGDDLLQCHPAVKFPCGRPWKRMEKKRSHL
Text: (§1) Evaluation of the compounds of this invention is guided by in vitro protease activity assays (see below) and in vivo studies to evaluate antithrombotic efficacy, and effects on hemostasis and hematological parameters (see below).

PLASMIN = biological target: T1, PLASMIN (Homo sapiens, UniProt P00747); test: In vitro protease activity assay, plasmin; assay type: biochemical
T1 construct: PLASMIN
T1 sequence (P00747 581-810 limits assumed, species assumed): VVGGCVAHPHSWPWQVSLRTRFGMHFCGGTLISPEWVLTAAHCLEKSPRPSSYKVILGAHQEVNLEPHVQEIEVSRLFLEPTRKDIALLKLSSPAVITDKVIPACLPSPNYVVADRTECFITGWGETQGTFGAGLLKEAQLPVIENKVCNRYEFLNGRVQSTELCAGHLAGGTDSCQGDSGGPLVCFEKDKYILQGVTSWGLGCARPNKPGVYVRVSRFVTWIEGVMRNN
T1 sequence (P00747 97-580 limits assumed, species assumed): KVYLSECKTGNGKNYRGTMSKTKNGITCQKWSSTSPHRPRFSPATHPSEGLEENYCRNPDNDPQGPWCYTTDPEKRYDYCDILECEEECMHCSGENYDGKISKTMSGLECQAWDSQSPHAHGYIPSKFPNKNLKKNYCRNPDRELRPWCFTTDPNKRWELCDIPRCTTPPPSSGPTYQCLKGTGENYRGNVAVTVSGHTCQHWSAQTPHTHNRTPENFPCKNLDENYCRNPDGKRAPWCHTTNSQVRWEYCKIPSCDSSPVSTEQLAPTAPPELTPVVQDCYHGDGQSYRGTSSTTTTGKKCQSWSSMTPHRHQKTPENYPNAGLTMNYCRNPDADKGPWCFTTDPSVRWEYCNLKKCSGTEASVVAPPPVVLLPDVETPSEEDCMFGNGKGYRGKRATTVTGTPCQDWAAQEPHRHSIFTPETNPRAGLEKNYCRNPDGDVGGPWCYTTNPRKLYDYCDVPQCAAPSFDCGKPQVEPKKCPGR
Text: as §1

TPA = TPA (Homo sapiens, UniProt P00750); test: In vitro protease activity assay, TPA; assay type: biochemical
Sequence of TPA (P00750 36-562, species assumed): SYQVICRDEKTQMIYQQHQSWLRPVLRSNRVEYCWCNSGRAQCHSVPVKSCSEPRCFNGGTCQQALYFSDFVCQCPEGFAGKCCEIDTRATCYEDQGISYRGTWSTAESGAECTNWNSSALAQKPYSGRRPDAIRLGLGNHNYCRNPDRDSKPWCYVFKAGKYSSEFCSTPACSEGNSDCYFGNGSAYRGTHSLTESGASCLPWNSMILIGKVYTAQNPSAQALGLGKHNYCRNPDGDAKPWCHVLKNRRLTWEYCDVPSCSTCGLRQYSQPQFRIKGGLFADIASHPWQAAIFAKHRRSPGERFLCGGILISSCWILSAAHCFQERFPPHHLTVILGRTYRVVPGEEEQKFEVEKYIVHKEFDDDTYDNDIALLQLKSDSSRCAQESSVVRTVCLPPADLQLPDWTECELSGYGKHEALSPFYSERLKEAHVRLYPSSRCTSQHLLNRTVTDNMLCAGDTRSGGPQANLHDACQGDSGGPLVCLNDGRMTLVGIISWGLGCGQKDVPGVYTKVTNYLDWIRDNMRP
Text: as §1

Structure (SMILES) | pIC50 (thrombin) | pIC50 (prothrombinase complex) | pIC50 (factor Xa) | also measured
CC(=N)N1CCC(Oc2ccc(N(Cc3cc4cc(C(=N)N)ccc4s3)S(C)(=O)=O)cc2)CC1 [Compound 13] | 4.51 | – | – | –
N=C(N)c1ccc2ccc(CN3c4ccc(OC5CCNCC5)cc4C=CS3(=O)=O)cc2c1 [Example 1] | 3.87 | 4.80 | 5.99 | –
N=C(N)c1ccc2ccc(CN3c4ccc(OC5CCNCC5)cc4CCS3(=O)=O)cc2c1 [Example 4] | 3.59 | 5.70 | 5.93 | –
CC(=N)N1CCC(Oc2ccc3c(c2)CCS(=O)(=O)N3Cc2ccc3ccc(C(=N)N)cc3c2)CC1 [Example 6] | 3.94 | 7.91 | 7.92 | pIC50 (APC): 5.41; pIC50 (PLASMIN): 5.63; pIC50 (TPA): 5.34
CC(=N)N1CCC(Oc2ccc(N(Cc3cc4cc(C(=N)N)ccc4s3)S(=O)(=O)CC(=O)O)cc2)CC1 [Compound 43] | 3.71 | – | 8.46 | IC50 (prothrombinase complex; Table 6): 7.6 nM
CC(=N)N1CCC(Oc2ccc3c(c2)C=CS(=O)(=O)N3Cc2ccc3ccc(C(=N)N)cc3c2)CC1 [Example 2] | 3.93 | 7.19 | 8.19 | pIC50 (APC): 5.73; pIC50 (PLASMIN): 5.63; pIC50 (TPA): 5.80
CS(=O)(=O)N(Cc1ccc2ccc(C(=N)N)cc2c1)c1ccc(C(=O)N2CCCC2C(N)=O)cc1 (stereo not shown) [Example 24] | – | – | – | pIC50 (factor Xa; read-out: XA, Examples 1-26 table): 5.46
CS(=O)(=O)N(Cc1ccc2ccc(C(=N)N)cc2c1)c1ccc(C(=O)N2CCC[C@H]2C(N)=O)cc1 [Compound 25] | 3.84 | – | 5.39 | IC50 (prothrombinase complex; Table 5): 95000 nM
N=C(N)c1ccc2ccc(CN3c4ccc(OC5CCN(C(=N)N)CC5)cc4CCS3(=O)=O)cc2c1 [Example 7] | 4.61 | 7.48 | 7.82 | pIC50 (APC): 5.47; pIC50 (PLASMIN): 5.65; pIC50 (TPA): 5.22
CC(=N)N1CCC(Oc2ccc(N(Cc3ccc4ccc(C(=N)N)cc4c3)S(C)(=O)=O)cc2)CC1 [Compound 2] | 4.02 | – | 8.20 | IC50 (prothrombinase complex; Table 4): 7 nM
CC(=N)N1CCC(Oc2ccc(N(Cc3cccc(-c4cccc(C(=N)N)c4)c3)S(=O)(=O)CC(=O)O)cc2)CC1 [Compound 41] | 4.41 | – | 8.44 | IC50 (prothrombinase complex; Table 6): 6.6 nM
NC(=O)c1ccc2ccc(CN3c4ccc(OC5CCNCC5)cc4CCS3(=O)=O)cc2c1 [Example 5] | – | 5.89 | 5.88 | –
CCOC(=O)CS(=O)(=O)N(Cc1cc2cc(C(=N)N)ccc2s1)c1ccc(OC2CCN(C(C)=N)CC2)cc1 [Compound 42] | 4.92 | – | 8.04 | IC50 (prothrombinase complex; Table 6): 8.4 nM
CC(=N)N1CCC(Oc2ccc(N(Cc3cc4cc(C(=N)N)ccc4n3C)S(C)(=O)=O)cc2)CC1 [Compound 15] | 4.93 | – | 7.51 | IC50 (prothrombinase complex; Table 4): 66.5 nM
CC(=N)N1CCC(Oc2ccc(N(Cc3cc(C)nn3-c3cccc(C(=N)N)c3)S(C)(=O)=O)cc2)CC1 [Compound 16] | < 4.96 | – | – | –
CC(=N)N1CCC(Oc2ccc(N(Cc3cccc(-c4cccc(C(=N)N)c4)c3)S(C)(=O)=O)cc2)CC1 [Compound 3] | 3.88 | – | – | –
CC(=N)N1CCC(Oc2ccc(N(Cc3ccc(-c4cccc(C(=N)N)c4)cc3)S(C)(=O)=O)cc2)CC1 [Compound 12] | < 4.96 | – | 7.60 | IC50 (prothrombinase complex; Table 3): 730 nM
CC(=N)N1CCC(Oc2ccc(N(Cc3cc(C)n(-c4cccc(C(=N)N)c4)n3)S(C)(=O)=O)cc2)CC1 [Compound 17] | < 4.96 | – | – | –
N=C(N)c1ccc2ccc(CN3c4ccc(OC5CCN(C(=N)N)CC5)cc4C=CS3(=O)=O)cc2c1 [Example 3] | 4.78 | 8.00 | 7.95 | pIC50 (APC): 6.05; pIC50 (PLASMIN): 5.94; pIC50 (TPA): 5.92
